# Laboratory results from patent publication EP0470795A1, “Process for the manufacture of nitriles” (ZENECA LIMITED, priority 1990, dated 1992).
# Test system: angiotensin II-induced pressor responses
# Test: Test C: antagonism of angiotensin II-induced pressor responses in terminally-anaesthetised or conscious rats
# Type: in vivo
# Settings: Rattus norvegicus, iv; i.v. administration; read-out: ED₅₀
# Method: This in vivo test involves using terminally-anaesthetised or conscious rats in which an arterial catheter has been implanted under anaesthesia for the measurement of changes in blood pressure. The AII antagonistic effects of the test compound following oral or parenteral administration, are assessed against angiotensin II-induced pressor responses. To ensure that the effect is specific, the effect of the test compound on vasopressin-induced pressor responses may also be determined in the same preparation.
smiles,measurement,value
Cc1cc(OCc2ccc(-c3ccccc3-c3nnn[nH]3)cc2)c2ccccc2n1.Cl [2-methyl-4-[(2′-(1H-tetrazol-5-yl)biphenyl-4-yl)methoxy]quinoline hydrochloride],ED50,0.5 mg/kg
